{
  "source": "paper PMC8464955",
  "about": "“Prediction of Drug–Drug Interaction Potential of Tegoprazan Using Physiologically Based Pharmacokinetic Modeling and Simulation” (Pharmaceutics, 2021)",
  "key": {"[1]": {"assay": "Blood:plasma partition ratio and fraction unbound in plasma, experimental data", "type": "in vitro ADME"}, "CYP2C19": {"target": "T1, CYP2C19 (Homo sapiens, UniProt P33261)", "T1 construct": "from tissue; host or cells: human liver microsomes", "T1 sequence (P33261 whole entry)": "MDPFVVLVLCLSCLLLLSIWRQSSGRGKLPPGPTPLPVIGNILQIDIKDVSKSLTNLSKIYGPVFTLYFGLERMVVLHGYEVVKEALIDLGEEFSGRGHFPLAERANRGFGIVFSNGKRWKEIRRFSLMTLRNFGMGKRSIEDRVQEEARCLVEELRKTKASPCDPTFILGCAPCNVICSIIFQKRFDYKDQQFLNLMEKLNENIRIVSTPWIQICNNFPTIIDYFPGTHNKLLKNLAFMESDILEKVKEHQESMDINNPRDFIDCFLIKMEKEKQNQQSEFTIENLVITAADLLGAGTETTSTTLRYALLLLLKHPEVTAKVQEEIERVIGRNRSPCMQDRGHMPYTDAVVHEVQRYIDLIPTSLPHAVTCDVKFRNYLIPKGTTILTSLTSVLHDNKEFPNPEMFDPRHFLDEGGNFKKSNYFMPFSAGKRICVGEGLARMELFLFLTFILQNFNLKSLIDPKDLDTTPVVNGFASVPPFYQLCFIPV", "assay": "Intrinsic clearance in human liver microsomes with CYP inhibitors", "type": "in vitro ADME", "description": "(§1) The elimination of the PBPK model consisted of enzyme kinetic and renal clearance (Table 1). Intrinsic clearances (CLint) of tegoprazan by various CYPs were determined by an in vitro study that measured the fraction of CLint inhibited by adding the inhibitors of CYP1A2, CYP2C9, CYP2C19, CYP2D6, and CYP3A to human liver microsomes (in-house data). Based on the in vitro data, an in vitro to in vivo extrapolation (IVIVE) approach was used to estimate the in vivo CLint by each CYP enzyme. Renal clearance as an additional clearance was used from the result of a single-oral-dose study of tegoprazan 100 mg."}, "CYP2D6": {"target": "T2, CYP2D6 (Homo sapiens, UniProt P10635)", "T2 construct": "from tissue; host or cells: human liver microsomes", "T2 sequence (P10635 whole entry)": "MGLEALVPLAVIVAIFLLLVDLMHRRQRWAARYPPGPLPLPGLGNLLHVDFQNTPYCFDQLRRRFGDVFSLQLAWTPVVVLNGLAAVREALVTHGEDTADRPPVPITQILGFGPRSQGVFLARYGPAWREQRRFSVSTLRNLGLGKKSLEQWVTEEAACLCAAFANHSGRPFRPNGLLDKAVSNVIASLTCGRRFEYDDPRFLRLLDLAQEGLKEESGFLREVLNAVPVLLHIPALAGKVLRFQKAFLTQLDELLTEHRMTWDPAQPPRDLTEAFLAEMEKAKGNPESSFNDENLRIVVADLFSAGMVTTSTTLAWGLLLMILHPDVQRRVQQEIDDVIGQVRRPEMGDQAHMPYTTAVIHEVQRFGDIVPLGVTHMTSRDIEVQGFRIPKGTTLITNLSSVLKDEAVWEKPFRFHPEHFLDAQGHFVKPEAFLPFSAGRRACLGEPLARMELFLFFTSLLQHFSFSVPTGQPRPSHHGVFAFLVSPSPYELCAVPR", "assay": "Intrinsic clearance in human liver microsomes with CYP inhibitors", "type": "in vitro ADME", "description": "as §1"}, "CYP1A2": {"target": "T3, CYP1A2 (Homo sapiens, UniProt P05177)", "T3 construct": "from tissue; host or cells: human liver microsomes", "T3 sequence (P05177 1-516)": "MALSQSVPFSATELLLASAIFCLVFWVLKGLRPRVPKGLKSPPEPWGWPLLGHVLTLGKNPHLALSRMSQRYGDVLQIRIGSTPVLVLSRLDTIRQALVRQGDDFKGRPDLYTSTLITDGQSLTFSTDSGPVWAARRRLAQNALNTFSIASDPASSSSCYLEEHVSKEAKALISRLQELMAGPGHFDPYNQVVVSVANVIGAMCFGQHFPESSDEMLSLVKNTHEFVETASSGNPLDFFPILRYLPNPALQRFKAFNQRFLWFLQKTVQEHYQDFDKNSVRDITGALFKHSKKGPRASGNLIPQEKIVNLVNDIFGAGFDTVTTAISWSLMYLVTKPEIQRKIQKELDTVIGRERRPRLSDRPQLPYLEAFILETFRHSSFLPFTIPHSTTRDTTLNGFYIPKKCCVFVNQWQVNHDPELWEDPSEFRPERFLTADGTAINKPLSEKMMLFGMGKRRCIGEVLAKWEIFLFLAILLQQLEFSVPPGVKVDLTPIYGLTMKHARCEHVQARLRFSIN", "assay": "Intrinsic clearance in human liver microsomes with CYP inhibitors", "type": "in vitro ADME", "description": "as §1"}, "CYP2C9": {"target": "T4, CYP2C9 (Homo sapiens, UniProt P11712)", "T4 construct": "from tissue; host or cells: human liver microsomes", "T4 sequence (P11712 whole entry)": "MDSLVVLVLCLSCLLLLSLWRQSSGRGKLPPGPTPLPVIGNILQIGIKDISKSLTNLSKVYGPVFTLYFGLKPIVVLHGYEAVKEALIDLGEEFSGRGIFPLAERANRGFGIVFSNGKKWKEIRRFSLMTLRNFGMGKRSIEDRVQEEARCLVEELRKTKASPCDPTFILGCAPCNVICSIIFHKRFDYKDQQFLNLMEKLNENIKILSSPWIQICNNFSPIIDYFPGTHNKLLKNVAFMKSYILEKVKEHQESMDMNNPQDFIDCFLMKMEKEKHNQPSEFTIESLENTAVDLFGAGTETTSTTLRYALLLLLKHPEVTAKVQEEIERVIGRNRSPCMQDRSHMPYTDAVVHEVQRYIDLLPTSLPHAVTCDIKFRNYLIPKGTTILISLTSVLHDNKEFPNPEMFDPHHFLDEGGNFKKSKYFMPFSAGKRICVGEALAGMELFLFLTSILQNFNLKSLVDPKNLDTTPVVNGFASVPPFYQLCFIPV", "assay": "Intrinsic clearance in human liver microsomes with CYP inhibitors", "type": "in vitro ADME", "description": "as §1"}, "[2]": {"assay": "Parallel artificial membrane permeability assay (PAMPA)", "type": "in vitro ADME", "text": "The advanced dissolution, absorption, and metabolism model was used. The unbound fraction of the drug in enterocytes (fuGut) and the human jejunum effective permeability (Peff,man) were predicted because these values were not routinely measured (Table 1). The value of fuGut was predicted using the values of in vitro parameters, such as the octanol:water partition coefficient, the fraction of intracellular water, and other distribution-related parameters (in-house data). The value of Peff,man was predicted using parallel artificial membrane permeation assay permeability (in-house data)."}, "gastric H^+/K^+-ATPase": {"system": "gastric H^+/K^+-ATPase", "set-up": "method as in PMID 31437865", "conditions": "from 50 mg to 400 mg; cited from earlier work"}, "[3]": {"conditions": "cited from earlier work; for AUCτ Obs. / Cmax Obs. / AUCinf Obs.: mean; for Tmax Obs.: median"}, "[4]": {"assay": "PBPK model (SimCYP) prediction of tegoprazan PK", "set-up": "species or system human", "conditions": "estimated from clinical data, single dose 50 mg", "text": "A PBPK model of tegoprazan was built and verified by both the bottom-up approach using in vitro data for maintaining a mechanistic PBPK structure and the top-down approach using clinical PK results for maintaining a descriptive structure (Figure 1). The initial PBPK model of tegoprazan was constructed using physicochemical properties (e.g., molecular weight, log P, pKa), in vitro data (e.g., permeability, intrinsic clearance), and in vivo data (e.g., renal clearance) provided by HK inno.N Corp. (Seoul, Korea). The commercially available software SimCYP simulator v19 (SimCYP Limited, Certara, Sheffield, UK) was used to build the PBPK model and to generate the PK simulations. The PBPK-model-predicted PK profiles and parameters of tegoprazan were compared with the observed PK profiles and parameters from previously conducted clinical studies (Supplementary Table S1). The specific model configuration related to absorption, distribution, and elimination is described below.\nThe advanced dissolution, absorption, and metabolism model was used. The unbound fraction of the drug in enterocytes (fuGut) and the human jejunum effective permeability (Peff,man) were predicted because these values were not routinely measured (Table 1). […]\nThe elimination of the PBPK model consisted of enzyme kinetic and renal clearance (Table 1). Intrinsic clearances (CLint) of tegoprazan by various CYPs were determined by an in vitro study that measured the fraction of CLint inhibited by adding the inhibitors of CYP1A2, CYP2C9, CYP2C19, CYP2D6, and CYP3A to human liver microsomes (in-house data). […]\nThe PBPK model of tegoprazan as a single agent was verified using data from clinical studies of single- and multiple-dose administration of different dosages of tegoprazan. To verify the PK predictability of the PBPK model, the model-predicted PK profiles and parameters were compared with the observed PK profiles and parameters measured in clinical studies. […]"}, "[5]": {"conditions": "multiple oral doses 50 mg once daily for 7 days, ref NCT03009760"}, "[6]": {"conditions": "multiple oral doses 100 mg once daily for 7 days, ref NCT03009760"}, "[7]": {"conditions": "single oral dose 25 mg, ref NCT03530228"}, "[8]": {"conditions": "single oral dose 50 mg, NCT03530228"}},
  "note": "Read-outs that look alike come from different tables or passages of the source.",
  "data": [
    {"smiles": "Cc1nc2cc(C(=O)N(C)C)cc(O[C@H]3CCOc4cc(F)cc(F)c43)c2[nH]1", "note": "[tegoprazan]", "values": [
      {"measurement": "blood plasma ratio", "setting": "[1]; blood and plasma, read-out: B/P (blood:plasma partition ratio)", "result": 0.868},
      {"measurement": "fraction unbound", "setting": "[1]; plasma, read-out: fu (fraction unbound in plasma)", "result": 0.124},
      {"measurement": "CYP2C19 CLint", "setting": "CYP2C19", "result": "3.6 μL/min/mg of protein"},
      {"measurement": "CYP2D6 CLint", "setting": "CYP2D6", "result": "2 μL/min/mg of protein"},
      {"measurement": "CYP1A2 CLint", "setting": "CYP1A2", "result": "2.5 μL/min/mg of protein"},
      {"measurement": "CYP2C9 CLint", "setting": "CYP2C9", "result": "2.6 μL/min/mg of protein"},
      {"measurement": "Papp", "setting": "[2]", "result": 68.4, "unit": "×10⁻⁶ cm/s"},
      {"measurement": "magnitude of acid suppression", "setting": "gastric H^+/K^+-ATPase", "result": "increases in a dose-dependent manner"},
      {"measurement": "AUCτ Obs.", "setting": "[3]; [5]", "result": 2954.9, "unit": "ng·h/mL"},
      {"measurement": "Cmax Obs.", "setting": "[3]; [5]", "result": 842.8, "unit": "ng/mL"},
      {"measurement": "Tmax Obs.", "setting": "[3]; [5]", "result": 1.00, "unit": "h"},
      {"measurement": "AUCτ Obs.", "setting": "[3]; [6]", "result": 4768.4, "unit": "ng·h/mL"},
      {"measurement": "Cmax Obs.", "setting": "[3]; [6]", "result": 1149.7, "unit": "ng/mL"},
      {"measurement": "Tmax Obs.", "setting": "[3]; [6]", "result": 1.25, "unit": "h"},
      {"measurement": "AUCinf Obs.", "setting": "[3]; [7]", "result": 1340.0, "unit": "ng·h/mL"},
      {"measurement": "Cmax Obs.", "setting": "[3]; [7]", "result": 335.6, "unit": "ng/mL"},
      {"measurement": "Tmax Obs.", "setting": "[3]; [7]", "result": 0.75, "unit": "h"},
      {"measurement": "AUCinf Obs.", "setting": "[3]; [8]", "result": 2903.0, "unit": "ng·h/mL"},
      {"measurement": "Cmax Obs.", "setting": "[3]; [8]", "result": 759.1, "unit": "ng/mL"},
      {"measurement": "Tmax Obs.", "setting": "[3]; [8]", "result": 1.00, "unit": "h"},
      {"measurement": "AUCinf Obs.", "setting": "[3]; single oral dose 100 mg", "result": 5998.1, "unit": "ng·h/mL"},
      {"measurement": "Cmax Obs.", "setting": "[3]; single oral dose 100 mg", "result": 1434.5, "unit": "ng/mL"},
      {"measurement": "Tmax Obs.", "setting": "[3]; single oral dose 100 mg", "result": 1.00, "unit": "h"},
      {"measurement": "Q (blood flow between central compartment and SAC)", "setting": "[4]", "result": 24.4, "unit": "L/h"},
      {"measurement": "VSAC (volume of the single adjusted compartment)", "setting": "[4]", "result": 0.66, "unit": "L/kg"},
      {"measurement": "Kp", "setting": "[4]; male, human, oral, read-out: Kp scalar", "result": 0.33}
    ]}
  ]
}
